{"source": "patent US5955508A", "about": "“Method for the enhancement of lymphocyte activity against opportunistic microbial pathogens” (priority 1996, dated 1999)", "key": {"K562 human tumor cells": {"system": "K562 human tumor cells", "experiment": "Incidence and metastasis of human K562 tumors in SCID mice reconstituted with human PBMC", "format": "in vivo", "protocol": "The purpose of the present experiments was to determine whether d-FEN can enhance the ability of the human immune system to kill a human tumor cell line, vis. K562 human chronic myelogenous leukemia cells. Toward this end d-FEN and vehicle (VEH) treated young male severe combined immunodeficient (SCID) beige mice, reconstituted 4 days previously with human peripheral blood mononuclear cells (PBMC) obtained from two human volunteers, were injected with K562 cells and tumor size and number measured 13-18 days later.\nSCID mice (n=36) were obtained from Harlan Sprague-Dawley Inc. (Indianapolis, Ind.). This inbred strain of mice are devoid of T, B, and natural killer (NK) cells. The animals were housed 3/cage in an AAALAC approved facility with a 12 h light-dark cycle (lights on at 07:00 h). The temperature and humidity of the facility were maintained between 72-75° F. and 52-55% respectively. Food (Purina mouse chow) and water were available ad libitum.\nProtocol. The animals were divided into groups of 6 and subjected to the following treatment for each of the 2 human donors tested:\nThe mice treated with d-FEN (10 mg/kg/day, p.o.) received the drug daily in their drinking water beginning 10 days prior to inoculation with human PBMC. On the day of PBMC injection (3×10^7 human PBMC/mouse, i.p.) the dose of d-FEN was reduced to […]. The average daily water intakes and body weights of the mice were 6 ml and 20 g, respectively. Therefore, a dose of 6 mg/kg equaled 2 mg of d-FEN per 100 ml of water. Four days after reconstitution with human PBMC, 1×10^7 K562 human tumor cells/mouse were injected i.p. The animals were sacrificed between 11:00 and 13:00 h 13-18 days after K562 cell injection (17-22 and 27-32 days, respectively, after transfection with human PBMC and the start of d-FEN treatment). The animals were thoroughly necropsied and tumor sites counted, excised, weighed and fixed for histological analysis.\nFor reconstitution of SCID mice with human PBMC, 500 ml of venous blood was drawn into sterile plastic pouches containing preservative free heparin. Blood was drawn by Apheresis Lab nurses at LUMC (Loyola University Medical Center) and was diluted with an equal volume of HBSS. The diluted blood (20 ml) was layered over 10 ml of Histopaque 1077 (Sigma Chemical Company, St. Louis, Mo.) and centrifuged at 1000×g for 30 min. After centrifugation, the mononuclear cell layer was recovered from the interface and washed twice in HBSS. After microscopic enumeration, the PBMC were resuspended in HBSS at a concentration of 1×10^8 cells/ml, and 0.3 ml (3×10^7 cells) of the cell suspension was injected (i.p.) into each SCID mouse.\nThe K562 cell line originated from a chronic myelogenous leukemia patient and was obtained from Dr. T. Ellis (Director, Cellular Immunology Laboratory, LUMC). The K562 cells used for assessment of cytotoxic activity were maintained in long term cultures using Corning 25 cm^2 tissue culture flasks (Corning Glass Works, Corning, N.Y.) containing RPMI 1640 (Gibco Laboratories, Grand Island, N.Y.) supplemented with low LPS 10% fetal bovine serum (FBS; Gibco), 100 units/ml penicillin, 100 μg/ml streptomycin (Whittaker M. A. Bioproducts, Walkersville, Md.), 0.1 mM non-essential amino acids, and 2 mM L-glutamine (Gibco). This medium was used throughout, except where noted, and is referred to as \"culture medium\". The K562 cells were grown in suspension and were passaged three times per week by transfer of 10^6 K562 cells into a flask containing 10 ml of fresh culture medium. The K562 cells injected into the SCID mice were supplemented with fresh medium at a 1:3 dilution the day before administration. They were washed once in medium, pelleted by centrifugation at 500 ×g for 10 min., then resuspended at a concentration of 5×10^7. Subsequently, 0.2 ml (1×10^7 cells) of the cell suspension was injected (i.p.) into each SCID mouse. The K562 cells were administered to the animals four days after the injection of PBMC."}, "lymphocyte functions": {"system": "lymphocyte functions", "settings": "Clancy and Lorens, 1996, Mathews et al.; cited from earlier work"}, "[1]": {"settings": "K562 + PBMC + d-FEN (10 then 6 mg/kg/day p.o.)"}, "[2]": {"settings": "K562 + PBMC + d-FEN (10 then 6 mg/kg/day p.o.), p = 0.05"}}}
{"smiles": "CCN[C@@H](C)Cc1cccc(C(F)(F)F)c1", "note": "[d-FEN]", "values": [{"measurement": "Number of Mice Showing Multiple Tumor Sites", "setting": "K562 human tumor cells; [1]", "result": "1/12"}, {"measurement": "Percent of Mice Showing Multiple Tumor Sites / tumor metastasis", "setting": "K562 human tumor cells; [1]", "result": 8, "unit": "%"}, {"measurement": "Number of Mice Having Tumors", "setting": "K562 human tumor cells; [2]", "result": "5/12"}, {"measurement": "Percent of Mice Having Tumors", "setting": "K562 human tumor cells; [2]", "result": 42, "unit": "%"}, {"measurement": "Body Weight", "setting": "K562 human tumor cells; K562 + PBMC + d-FEN (10 then 6 mg/kg/day p.o., drinking water)", "result": "17.5 ± 2.1", "unit": "g"}, {"measurement": "incidence of histopathologically confirmed lymphomas in words", "setting": "K562 human tumor cells; d-FEN treated SCID mice, p=0.05", "result": "significantly (p=0.05) reduced incidence"}, {"measurement": "body weights and water intakes in words", "setting": "K562 human tumor cells; d-FEN treated vs control SCID mice", "result": "did not differ from those of the control animals"}, {"measurement": "tumor metastasis in words", "setting": "K562 human tumor cells; d-FEN treated vs other two groups, p=0.6", "result": "did not reach significance"}, {"measurement": "anorexigenic action and weight loss", "setting": "K562 human tumor cells; doses used during the studies", "result": "No effect of this type was observed"}, {"measurement": "largest tumor", "setting": "K562 human tumor cells; one of the d-FEN treated mice, with metastasis", "result": 0.833, "unit": "g"}, {"measurement": "immune functions in experimental animal models, in words", "setting": "lymphocyte functions", "result": "augment T and B lymphocyte functions, to increase cell-mediated cytotoxicity for natural killer cell (NK) tumor targets and to enhance cell-mediated activities for opportunistic microbial pathogens"}]}
